Here are results for one compound from ChEMBL document CHEMBL4033700, “From a novel HTS hit to potent, selective, and orally bioavailable KDM5 inhibitors” (Bioorg Med Chem Lett, 2017).

Series [1] addresses T1, Lysine-specific demethylase 2B (Homo sapiens, UniProt Q8NHM5).
T1 sequence (Q8NHM5 whole entry): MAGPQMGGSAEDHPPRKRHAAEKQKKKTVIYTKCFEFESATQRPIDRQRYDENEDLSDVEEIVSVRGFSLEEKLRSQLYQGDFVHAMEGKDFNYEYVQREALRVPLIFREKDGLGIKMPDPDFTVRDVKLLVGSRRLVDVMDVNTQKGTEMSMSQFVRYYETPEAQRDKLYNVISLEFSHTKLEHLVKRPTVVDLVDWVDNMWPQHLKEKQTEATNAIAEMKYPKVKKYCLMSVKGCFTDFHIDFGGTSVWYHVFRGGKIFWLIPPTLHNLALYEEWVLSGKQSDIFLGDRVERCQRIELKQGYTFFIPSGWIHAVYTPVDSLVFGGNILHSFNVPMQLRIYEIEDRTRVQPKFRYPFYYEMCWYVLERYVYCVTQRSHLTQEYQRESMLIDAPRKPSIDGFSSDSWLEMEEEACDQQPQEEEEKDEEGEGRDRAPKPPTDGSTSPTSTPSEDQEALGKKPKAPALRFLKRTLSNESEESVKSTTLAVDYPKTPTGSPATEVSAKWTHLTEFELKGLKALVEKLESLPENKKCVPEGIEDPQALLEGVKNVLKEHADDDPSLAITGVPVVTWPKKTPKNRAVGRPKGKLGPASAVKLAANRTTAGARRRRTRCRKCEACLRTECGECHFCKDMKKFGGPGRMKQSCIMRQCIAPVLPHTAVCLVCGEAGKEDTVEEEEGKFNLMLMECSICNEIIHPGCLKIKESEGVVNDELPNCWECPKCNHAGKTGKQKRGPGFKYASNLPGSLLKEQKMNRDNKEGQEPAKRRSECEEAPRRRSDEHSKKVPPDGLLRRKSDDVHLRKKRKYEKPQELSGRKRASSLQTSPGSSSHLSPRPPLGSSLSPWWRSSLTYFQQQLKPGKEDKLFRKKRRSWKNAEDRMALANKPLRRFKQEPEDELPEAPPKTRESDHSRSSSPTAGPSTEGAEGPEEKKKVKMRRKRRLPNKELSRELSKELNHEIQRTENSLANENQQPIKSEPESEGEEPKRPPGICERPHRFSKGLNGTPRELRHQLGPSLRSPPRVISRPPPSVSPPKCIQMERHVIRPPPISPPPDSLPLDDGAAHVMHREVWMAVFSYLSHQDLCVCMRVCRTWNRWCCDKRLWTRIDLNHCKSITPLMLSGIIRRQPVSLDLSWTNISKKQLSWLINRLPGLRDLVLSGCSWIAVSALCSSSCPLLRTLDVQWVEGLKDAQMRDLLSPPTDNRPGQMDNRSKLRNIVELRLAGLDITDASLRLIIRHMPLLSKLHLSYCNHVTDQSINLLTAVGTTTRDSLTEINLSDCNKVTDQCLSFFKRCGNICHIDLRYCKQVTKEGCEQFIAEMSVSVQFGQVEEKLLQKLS
Briefly: Inhibition of recombinant human N-terminal FLAG-tagged KDM2B expressed in baculovirus infected Sf9 insect cells using H3K36me2 peptide as substrate after 30 to 45 mins by TR-FRET assay. On the technique in general: Time-resolved FRET reads energy transfer from a long-lived donor to a nearby acceptor.

Series [2] deals with Lysine-specific demethylase 3B (Homo sapiens, UniProt Q7LBC6). In words: Inhibition of recombinant human N-terminal FLAG-tagged KDM3B expressed in baculovirus infected Sf9 insect cells using H3K9me1 peptide as substrate after 30 to 45 mins by TR-FRET assay.
Series [3] deals with T2, Lysine-specific demethylase 4C (Homo sapiens, UniProt Q9H3R0).
T2 sequence (Q9H3R0 whole entry): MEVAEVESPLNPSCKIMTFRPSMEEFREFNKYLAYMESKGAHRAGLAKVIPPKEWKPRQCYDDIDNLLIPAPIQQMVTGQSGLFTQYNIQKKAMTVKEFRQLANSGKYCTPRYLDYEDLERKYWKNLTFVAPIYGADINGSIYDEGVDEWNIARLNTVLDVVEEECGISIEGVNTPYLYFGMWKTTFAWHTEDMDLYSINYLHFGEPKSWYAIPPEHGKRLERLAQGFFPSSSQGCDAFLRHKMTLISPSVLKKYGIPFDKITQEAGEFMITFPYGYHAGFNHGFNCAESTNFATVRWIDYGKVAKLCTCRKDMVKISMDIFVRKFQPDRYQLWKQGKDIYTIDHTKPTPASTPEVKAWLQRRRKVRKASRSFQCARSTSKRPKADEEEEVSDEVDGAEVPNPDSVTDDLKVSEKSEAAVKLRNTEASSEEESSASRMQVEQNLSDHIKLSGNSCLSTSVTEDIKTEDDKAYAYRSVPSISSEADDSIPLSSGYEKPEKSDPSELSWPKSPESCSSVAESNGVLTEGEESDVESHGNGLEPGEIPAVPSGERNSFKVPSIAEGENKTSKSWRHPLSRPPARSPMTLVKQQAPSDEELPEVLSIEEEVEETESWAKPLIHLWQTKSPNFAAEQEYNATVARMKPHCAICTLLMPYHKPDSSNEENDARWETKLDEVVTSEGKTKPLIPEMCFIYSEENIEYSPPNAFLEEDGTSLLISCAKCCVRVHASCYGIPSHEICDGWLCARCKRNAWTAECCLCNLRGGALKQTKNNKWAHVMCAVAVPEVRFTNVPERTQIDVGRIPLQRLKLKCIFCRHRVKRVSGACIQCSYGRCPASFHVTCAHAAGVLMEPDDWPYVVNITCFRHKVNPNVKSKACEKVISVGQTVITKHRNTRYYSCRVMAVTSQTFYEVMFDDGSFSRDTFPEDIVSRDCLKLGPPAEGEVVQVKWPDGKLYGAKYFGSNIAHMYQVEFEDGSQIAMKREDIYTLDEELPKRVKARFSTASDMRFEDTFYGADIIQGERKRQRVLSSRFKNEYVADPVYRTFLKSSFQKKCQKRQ
Briefly: Inhibition of recombinant human N-terminal FLAG-tagged KDM4C expressed in baculovirus infected Sf9 insect cells using H3K9me3 peptide as substrate after 30 to 45 mins by TR-FRET assay.

Series [4] has as its target Histone lysine demethylase PHF8 (Homo sapiens, UniProt Q9UPP1). Briefly: Inhibition of recombinant human N-terminal FLAG-tagged KDM7B expressed in baculovirus infected Sf9 insect cells using H3K9me1 peptide as substrate after 30 to 45 mins by TR-FRET assay.
Series [5] concerns the target Lysine-specific demethylase 5A (Homo sapiens, UniProt P29375). Briefly: Inhibition of KDM5A in human PC9 cells assessed as increase in H3K4me3 level after 5 days by mass-spectrometric method. The series is classed as cell-based. As to conditions: read-out: EC50.
Series [6] can be described thus: Lipophilicity, log D of the compound at pH 7.4. In kind it is physicochemical. The settings on record: buffer.
A short description of series [7]: Kinetic solubility of the compound. The series is classed as physicochemical. The settings on record: read-out: Kinetic_solubility.
Series [8] is described as follows: Protein binding in human plasma. In kind it is ADME, cell-free. As to conditions: read-out: PPB (converted).
Series [9] is described as follows: Protein binding in rat plasma. In kind it is ADME, cell-free. The settings on record: read-out: PPB (converted).
Series [10] can be described thus: Protein binding in mouse plasma. The series is classed as ADME, cell-free. As to conditions: read-out: PPB (converted).
The nature of series [11]: Oral bioavailability in CD-1 mouse at 5 mg/kg. The series is classed as ADME, organism-based. The settings on record: in vivo.
Series [12] in a line: Hepatic clearance in human liver microsomes. In kind it is ADME, microsome. In general terms: Liver microsomes are a subcellular fraction often used to study metabolism.
Series [13] is described as follows: Hepatic clearance in rat liver microsomes. In kind it is ADME, microsome.
Series [14] can be described thus: Hepatic clearance in human hepatocytes. The series is classed as ADME, cell-based, Hepatocyte.
The nature of series [15]: Hepatic clearance in mouse hepatocytes. The series is classed as ADME, cell-based, Hepatocyte.

Values after ≈ are worked out from the molar mass of the structure shown.

Lysine-specific demethylase 5A, sequence (P29375 whole entry): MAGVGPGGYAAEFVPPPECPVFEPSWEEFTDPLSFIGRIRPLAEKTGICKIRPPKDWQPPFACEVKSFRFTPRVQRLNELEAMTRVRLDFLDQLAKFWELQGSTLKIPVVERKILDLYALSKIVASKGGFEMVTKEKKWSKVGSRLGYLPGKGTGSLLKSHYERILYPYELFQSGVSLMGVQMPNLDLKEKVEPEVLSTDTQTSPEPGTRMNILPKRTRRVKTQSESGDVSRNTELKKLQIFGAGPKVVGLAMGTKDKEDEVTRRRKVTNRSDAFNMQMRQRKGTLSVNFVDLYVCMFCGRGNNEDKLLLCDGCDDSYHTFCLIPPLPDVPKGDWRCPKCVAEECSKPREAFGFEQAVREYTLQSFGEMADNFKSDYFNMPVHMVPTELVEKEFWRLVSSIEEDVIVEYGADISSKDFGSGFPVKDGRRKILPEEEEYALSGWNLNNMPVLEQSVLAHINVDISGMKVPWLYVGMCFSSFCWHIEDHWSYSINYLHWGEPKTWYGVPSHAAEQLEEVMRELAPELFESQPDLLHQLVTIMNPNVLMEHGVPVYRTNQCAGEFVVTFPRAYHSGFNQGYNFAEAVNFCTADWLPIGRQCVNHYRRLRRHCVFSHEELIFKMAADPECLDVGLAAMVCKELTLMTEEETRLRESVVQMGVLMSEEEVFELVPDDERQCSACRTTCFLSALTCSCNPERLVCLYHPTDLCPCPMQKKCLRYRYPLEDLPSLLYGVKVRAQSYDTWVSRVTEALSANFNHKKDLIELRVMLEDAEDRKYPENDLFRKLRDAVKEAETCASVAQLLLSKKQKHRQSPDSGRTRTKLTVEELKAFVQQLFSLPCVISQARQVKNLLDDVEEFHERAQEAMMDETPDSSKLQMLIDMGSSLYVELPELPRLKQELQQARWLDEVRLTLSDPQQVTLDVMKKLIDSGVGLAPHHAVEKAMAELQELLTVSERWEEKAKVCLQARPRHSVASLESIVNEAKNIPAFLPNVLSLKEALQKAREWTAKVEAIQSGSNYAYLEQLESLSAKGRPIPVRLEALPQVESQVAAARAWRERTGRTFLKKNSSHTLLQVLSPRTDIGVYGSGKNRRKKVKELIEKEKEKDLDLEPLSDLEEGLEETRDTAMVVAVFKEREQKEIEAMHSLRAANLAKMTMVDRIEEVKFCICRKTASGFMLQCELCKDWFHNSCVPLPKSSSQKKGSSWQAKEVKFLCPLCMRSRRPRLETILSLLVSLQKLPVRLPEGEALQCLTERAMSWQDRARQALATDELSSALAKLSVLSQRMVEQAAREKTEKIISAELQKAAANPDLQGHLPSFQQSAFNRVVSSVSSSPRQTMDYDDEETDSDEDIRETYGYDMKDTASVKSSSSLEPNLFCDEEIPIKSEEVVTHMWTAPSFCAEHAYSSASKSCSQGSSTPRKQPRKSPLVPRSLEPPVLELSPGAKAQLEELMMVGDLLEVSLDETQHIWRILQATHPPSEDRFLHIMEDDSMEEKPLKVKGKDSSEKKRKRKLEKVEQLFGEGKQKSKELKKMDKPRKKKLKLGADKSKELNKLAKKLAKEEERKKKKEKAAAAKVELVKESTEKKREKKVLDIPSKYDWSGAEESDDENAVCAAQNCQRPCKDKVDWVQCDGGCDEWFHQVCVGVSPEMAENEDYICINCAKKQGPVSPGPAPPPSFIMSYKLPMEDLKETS
Histone lysine demethylase PHF8, sequence (Q9UPP1 whole entry): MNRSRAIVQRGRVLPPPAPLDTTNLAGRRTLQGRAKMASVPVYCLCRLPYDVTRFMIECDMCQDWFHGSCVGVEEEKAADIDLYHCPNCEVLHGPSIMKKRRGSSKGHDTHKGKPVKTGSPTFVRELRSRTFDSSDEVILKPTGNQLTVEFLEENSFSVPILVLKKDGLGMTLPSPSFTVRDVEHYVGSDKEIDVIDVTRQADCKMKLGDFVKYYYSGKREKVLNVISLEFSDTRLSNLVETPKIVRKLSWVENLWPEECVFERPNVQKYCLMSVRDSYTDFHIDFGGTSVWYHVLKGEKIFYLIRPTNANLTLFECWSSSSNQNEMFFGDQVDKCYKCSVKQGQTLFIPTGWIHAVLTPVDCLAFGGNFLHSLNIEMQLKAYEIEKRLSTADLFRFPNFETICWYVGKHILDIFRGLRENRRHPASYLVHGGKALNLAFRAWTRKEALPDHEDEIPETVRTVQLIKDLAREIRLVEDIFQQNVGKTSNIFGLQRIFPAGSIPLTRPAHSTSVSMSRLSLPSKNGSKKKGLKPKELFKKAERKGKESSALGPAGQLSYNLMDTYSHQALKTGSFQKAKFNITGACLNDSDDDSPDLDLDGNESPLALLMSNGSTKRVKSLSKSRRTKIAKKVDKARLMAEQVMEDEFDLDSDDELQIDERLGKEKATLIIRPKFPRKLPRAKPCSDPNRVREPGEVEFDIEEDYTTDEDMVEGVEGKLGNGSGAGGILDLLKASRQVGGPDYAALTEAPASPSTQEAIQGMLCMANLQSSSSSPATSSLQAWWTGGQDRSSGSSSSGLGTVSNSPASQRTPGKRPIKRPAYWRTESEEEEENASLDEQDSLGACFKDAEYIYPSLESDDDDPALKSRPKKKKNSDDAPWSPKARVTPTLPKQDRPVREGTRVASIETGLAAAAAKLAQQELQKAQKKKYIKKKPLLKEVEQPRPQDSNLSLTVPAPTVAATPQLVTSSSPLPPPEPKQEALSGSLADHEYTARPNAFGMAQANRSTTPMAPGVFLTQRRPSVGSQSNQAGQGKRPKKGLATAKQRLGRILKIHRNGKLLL
Lysine-specific demethylase 3B, sequence (Q7LBC6 whole entry): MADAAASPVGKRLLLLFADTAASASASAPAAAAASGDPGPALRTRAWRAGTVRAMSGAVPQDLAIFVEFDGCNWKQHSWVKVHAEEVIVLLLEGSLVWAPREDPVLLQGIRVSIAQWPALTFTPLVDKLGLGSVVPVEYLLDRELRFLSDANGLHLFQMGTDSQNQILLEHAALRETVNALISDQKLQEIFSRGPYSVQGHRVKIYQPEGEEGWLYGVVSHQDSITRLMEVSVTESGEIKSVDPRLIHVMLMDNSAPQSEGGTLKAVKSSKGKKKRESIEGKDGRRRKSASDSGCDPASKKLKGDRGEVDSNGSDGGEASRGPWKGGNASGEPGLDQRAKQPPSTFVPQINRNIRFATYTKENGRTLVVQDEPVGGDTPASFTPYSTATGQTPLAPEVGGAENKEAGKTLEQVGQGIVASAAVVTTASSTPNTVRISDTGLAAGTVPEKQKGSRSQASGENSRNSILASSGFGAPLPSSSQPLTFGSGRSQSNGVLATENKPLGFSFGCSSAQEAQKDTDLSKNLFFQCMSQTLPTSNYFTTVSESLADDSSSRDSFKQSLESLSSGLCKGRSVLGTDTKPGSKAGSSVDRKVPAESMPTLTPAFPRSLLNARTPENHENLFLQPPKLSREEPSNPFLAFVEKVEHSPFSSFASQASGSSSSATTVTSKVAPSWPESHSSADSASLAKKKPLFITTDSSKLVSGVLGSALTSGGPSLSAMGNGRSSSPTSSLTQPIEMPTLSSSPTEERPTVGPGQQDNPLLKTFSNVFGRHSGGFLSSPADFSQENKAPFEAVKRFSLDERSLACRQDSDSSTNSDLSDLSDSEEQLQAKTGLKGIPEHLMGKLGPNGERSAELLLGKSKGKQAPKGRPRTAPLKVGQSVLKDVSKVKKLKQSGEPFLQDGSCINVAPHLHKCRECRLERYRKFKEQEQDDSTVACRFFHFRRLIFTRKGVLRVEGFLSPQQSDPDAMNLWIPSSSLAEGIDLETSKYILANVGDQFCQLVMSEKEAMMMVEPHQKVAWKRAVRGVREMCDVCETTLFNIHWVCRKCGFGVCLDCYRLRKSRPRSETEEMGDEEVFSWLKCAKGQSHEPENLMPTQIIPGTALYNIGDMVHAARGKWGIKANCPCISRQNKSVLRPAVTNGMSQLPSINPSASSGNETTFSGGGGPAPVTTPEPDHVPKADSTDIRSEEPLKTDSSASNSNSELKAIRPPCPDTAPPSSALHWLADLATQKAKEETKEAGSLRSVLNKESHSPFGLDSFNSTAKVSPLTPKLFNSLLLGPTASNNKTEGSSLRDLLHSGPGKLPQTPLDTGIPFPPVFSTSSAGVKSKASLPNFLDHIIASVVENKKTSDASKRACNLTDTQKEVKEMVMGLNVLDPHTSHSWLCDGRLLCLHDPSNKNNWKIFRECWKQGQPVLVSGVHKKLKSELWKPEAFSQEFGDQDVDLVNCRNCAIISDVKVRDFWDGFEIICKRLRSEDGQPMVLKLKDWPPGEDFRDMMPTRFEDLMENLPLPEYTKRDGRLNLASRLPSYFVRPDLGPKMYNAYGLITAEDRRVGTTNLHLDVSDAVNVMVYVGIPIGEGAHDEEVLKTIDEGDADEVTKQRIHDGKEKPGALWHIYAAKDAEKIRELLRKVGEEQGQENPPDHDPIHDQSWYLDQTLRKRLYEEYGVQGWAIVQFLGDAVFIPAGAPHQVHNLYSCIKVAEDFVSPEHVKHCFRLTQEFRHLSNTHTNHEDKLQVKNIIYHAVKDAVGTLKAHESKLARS

Usually IC50 stands for the concentration that inhibits the measured activity by half. The EC50 is the concentration needed to bring the measured effect to its halfway point. As usually defined, the logD is lipophilicity at a set pH, counting ionised and neutral species. The low end stands for lower lipophilicity, the high end for higher lipophilicity. As usually defined, the bioavailability is the share of a dose that reaches the circulation, judged against a reference dose that is usually intravenous. Low readings indicate poor availability, high ones good availability. On to `CC(C)c1cc(C(=O)N2CC[C@@H](NC(=O)C3CC3)C2)[nH]n1`, for which the IC50 is > 25 µM in [1], > 25 µM in [2], 4.1 µM in series [3] and > 25 µM in [4]. The EC50 in series [5] was 960 nM. In series [6], this compound returned a log distribution coefficient (logD) of 1.3. Moreover, the solubility kinetic in series [7] is 112 µM (≈ 32.5 µg/mL). For the same compound, the fraction unbound is 0.56 in series [8], 0.624 in series [9] and 0.6 in series [10]. Besides, the bioavailability in series [11] worked out at 34%. For the same compound, the CLhep predicted was 4.2 mL/min/kg in series [12], 13 mL/min/kg in [13], 1.2 mL/min/kg in series [14] and 0.6 mL/min/kg in series [15].
